According to patent US7855290B2, “Pyridine derivatives and pyrimidine derivatives (3)” (Eisai R&D Management Co., Ltd., priority 2005, dated 2010):

Assays:
HGFR = biological target: T1, HGFR (Homo sapiens, UniProt P08581); assay: Inhibitory activity against the HGFR autophosphorylation using ELISA (MKN-45 cells); type: cell-based; conditions: 1 hr with test substance
T1 construct: endogenous in cells; host or cells: MKN-45 human gastric cancer cells
Procedure, shortened: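 HGFR autophosphorylation measured by sandwich ELISA: anti-phosphotyrosine PY20 capture, anti-HGFR detection, HRP secondary, TMB read at 450 nm. Lysates came from MKN-45 cells given test substance for 1 h at 37° C in 1% FBS RPMI1640. Percent activity normalised between no-compound extract and lysis buffer alone.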

[1] = tested on: Human gastric cancer cells (MKN-45); assay: Inhibitory activity against the proliferation of human gastric cancer cells (MKN-45); type: cell-based; conditions: 72 h, MKN-45, 1% FBS RPMI1640, 3 days, Cell Counting Kit-8
Procedure, shortened: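 MKN-45 cells seeded overnight in RPMI1640 with 1% FBS, then exposed to compound for 3 days at 37° C, 5% CO2. Viability read with CCK-8 after about 1.5 hrs, absorbance at 450 nm (reference 660 nm).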

T1 sequence (P08581 25-1390): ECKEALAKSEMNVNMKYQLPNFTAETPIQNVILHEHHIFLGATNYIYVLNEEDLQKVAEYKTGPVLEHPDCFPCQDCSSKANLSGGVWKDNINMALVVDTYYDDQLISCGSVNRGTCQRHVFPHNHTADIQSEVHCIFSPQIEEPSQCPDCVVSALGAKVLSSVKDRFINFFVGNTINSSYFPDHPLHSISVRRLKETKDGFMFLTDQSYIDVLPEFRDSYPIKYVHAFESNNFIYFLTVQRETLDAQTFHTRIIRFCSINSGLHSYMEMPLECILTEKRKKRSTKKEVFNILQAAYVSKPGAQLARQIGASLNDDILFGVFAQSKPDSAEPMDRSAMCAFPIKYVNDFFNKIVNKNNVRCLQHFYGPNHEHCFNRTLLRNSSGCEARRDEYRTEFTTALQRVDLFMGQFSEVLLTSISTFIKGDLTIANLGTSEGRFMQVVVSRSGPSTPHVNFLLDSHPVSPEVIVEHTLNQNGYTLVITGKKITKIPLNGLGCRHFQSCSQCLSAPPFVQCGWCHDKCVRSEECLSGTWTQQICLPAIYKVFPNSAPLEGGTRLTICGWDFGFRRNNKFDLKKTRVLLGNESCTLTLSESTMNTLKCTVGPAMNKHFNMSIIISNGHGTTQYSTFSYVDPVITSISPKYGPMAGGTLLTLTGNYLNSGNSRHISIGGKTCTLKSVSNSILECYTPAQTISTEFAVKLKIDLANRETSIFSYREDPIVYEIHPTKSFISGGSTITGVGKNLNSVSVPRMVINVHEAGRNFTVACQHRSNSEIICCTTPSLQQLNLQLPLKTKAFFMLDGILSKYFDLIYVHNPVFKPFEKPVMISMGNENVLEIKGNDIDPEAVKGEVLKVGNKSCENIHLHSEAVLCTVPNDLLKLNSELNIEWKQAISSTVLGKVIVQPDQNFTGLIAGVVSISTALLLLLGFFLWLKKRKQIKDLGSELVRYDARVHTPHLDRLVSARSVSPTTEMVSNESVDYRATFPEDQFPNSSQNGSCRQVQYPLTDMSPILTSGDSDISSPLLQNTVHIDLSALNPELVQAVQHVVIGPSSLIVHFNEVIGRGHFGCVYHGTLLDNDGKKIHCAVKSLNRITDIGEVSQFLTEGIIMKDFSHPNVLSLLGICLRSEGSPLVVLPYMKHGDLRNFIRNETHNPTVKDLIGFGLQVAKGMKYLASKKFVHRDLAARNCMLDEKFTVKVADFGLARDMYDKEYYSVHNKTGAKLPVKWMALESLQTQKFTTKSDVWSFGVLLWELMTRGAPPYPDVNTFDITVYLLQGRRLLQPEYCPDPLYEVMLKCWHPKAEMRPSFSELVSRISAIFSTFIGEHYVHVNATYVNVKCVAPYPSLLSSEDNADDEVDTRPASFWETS

IC50 (HGFR) [nM] | IC50 [1] [nM] | Structure (SMILES)
22 | 19 | CN(C)CC1CCN(C(=O)Nc2cc(Oc3ccc(NC(=O)C4(C(=O)Nc5ccc(F)cc5)CC4)cc3F)ccn2)CC1 [Example 5, N-[4-({2-[({4-[(Dimethylamino)methyl]piperidin-1-yl}carbonyl)amino]pyridin-4-yl}oxy)-3-fluorophenyl]-N′-(4-fluorophenyl)cyclopropane-1,1-dicarboxamide]
7 | 17 | O=C(Nc1cc(Oc2ccc(NC(=O)C3(C(=O)Nc4ccc(F)cc4)CC3)cc2F)ccn1)N1CC(CO)C1 [Example 81, N-(3-Fluoro-4-{[2-({[3-(hydroxymethyl)azetidin-1-yl]carbonyl}amino)pyridin-4-yl]oxy}phenyl)-N′-(4-fluorophenyl)cyclopropane-1,1-dicarboxamide]
22 | 21 | O=C(Nc1cc(Oc2ccc(NC(=O)C3(C(=O)Nc4ccc(F)cc4)CC3)c(F)c2)ccn1)N1CCC(O)CC1 [Example 82, N-[2-Fluoro-4-[(2-{[(4-hydroxypiperidin-1-yl)carbonyl]amino}pyridin-4-yl)oxy]phenyl}-N′-(4-fluorophenyl)cyclopropane-1,1-dicarboxamide]
18 | 16 | O=C(Nc1cc(Oc2ccc(NC(=O)C3(C(=O)Nc4ccc(F)cc4)CC3)c(F)c2)ccn1)N1CCC(CO)CC1 [Example 83, N-(2-Fluoro-4-{[2-({[4-(hydroxymethyl)piperidin-1-yl]carbonyl}amino)pyridin-4-yl]oxy}phenyl)-N′-(4-fluorophenyl)cyclopropane-1,1-dicarboxamide]
17 | 19 | O=C(Nc1cc(Oc2ccc(NC(=O)C3(C(=O)Nc4ccc(F)cc4)CC3)cc2F)ccn1)N1CCC(O)CC1 [Example 84, N-[3-Fluoro-4-[(2-{[(4-hydroxypiperidin-1-yl)carbonyl]amino}pyridin-4-yl)oxy]phenyl}-N′-(4-fluorophenyl)cyclopropane-1,1-dicarboxamide]
14 | 15 | O=C(Nc1cc(Oc2ccc(NC(=O)C3(C(=O)Nc4ccc(F)cc4)CC3)cc2F)ccn1)N1CCC(CO)CC1 [Example 85, N-(3-Fluoro-4-{[2-({[-4-(hydroxymethyl)piperidin-1-yl]carbonyl}amino)pyridin-4-yl]oxy}phenyl)-N′-(4-fluorophenyl)cyclopropane-1,1-dicarboxamide]
11 | 15 | O=C(Nc1cc(Oc2ccc(NC(=O)C3(C(=O)Nc4ccc(F)cc4)CC3)cc2F)ccn1)N1CC[C@@H](O)C1 [Example 86, N-(3-Fluoro-4-{[2-({[(3R)-3-hydroxypyrrolidin-1-yl]carbonyl}amino)pyridin-4-yl]oxy}phenyl)-N′-(4-fluorophenyl)cyclopropane-1,1-dicarboxamide]
12 | 14 | O=C(Nc1cc(Oc2ccc(NC(=O)C3(C(=O)Nc4ccc(F)cc4)CC3)c(F)c2)ccn1)N1CC[C@@H](O)C1 [Example 87, N-(2-Fluoro-4-{[2-({[(3R)-3-hydroxypyrrolidin-1-yl]carbonyl}amino)pyridin-4-yl]oxy}phenyl)-N′-(4-fluorophenyl)cyclopropane-1,1-dicarboxamide]
20 | 18 | O=C(Nc1cc(Oc2ccc(NC(=O)C3(C(=O)Nc4ccc(F)cc4)CC3)cc2F)ccn1)N1CC[C@H](O)C1 [Example 88, N-(3-Fluoro-4-{[2-({[(3S)-3-hydroxypyrrolidin-1-yl]carbonyl}amino)pyridin-4-yl]oxy}phenyl)-N′-(4-fluorophenyl)cyclopropane-1,1-dicarboxamide]
17 | 18 | O=C(Nc1cc(Oc2ccc(NC(=O)C3(C(=O)Nc4ccc(F)cc4)CC3)c(F)c2)ccn1)N1CC[C@H](O)C1 [Example 89, N-(2-Fluoro-4-{[2-({[(3S)-3-hydroxypyrrolidin-1-yl]carbonyl}amino)pyridin-4-yl]oxy}phenyl)-N′-(4-fluorophenyl)cyclopropane-1,1-dicarboxamide]
11 | 5 | O=C(Nc1cc(Oc2cc(F)c(NC(=O)C3(C(=O)Nc4ccc(F)cc4)CC3)cc2F)ccn1)N1CCC1 [Example 90, N-[4-({2-[(Azetidin-1-ylcarbonyl)amino]pyridin-4-yl}oxy)-2,5-difluorophenyl]-N′-(4-fluorophenyl)cyclopropane-1,1-dicarboxamide]
13 | 4.9 | CN1CCN(C2CCN(C(=O)Nc3cc(Oc4cc(F)c(NC(=O)C5(C(=O)Nc6ccc(F)cc6)CC5)cc4F)ccn3)CC2)CC1 [Example 92, N-(2,5-Difluoro-4-{[2-({[4-(4-methylpiperazin-1-yl)piperidin-1-yl]carbonyl}amino)pyridin-4-yl]oxy}phenyl)-N′-(4-fluorophenyl)cyclopropane-1,1-dicarboxamide]
7 | 5.2 | CN(C)CC1CN(C(=O)Nc2cc(Oc3cc(F)c(NC(=O)C4(C(=O)Nc5ccc(F)cc5)CC4)cc3F)ccn2)C1 [Example 93, N-[2,5-Difluoro-4-({2-[({3-[(dimethylamino)methyl]azetidin-1-yl]carbonyl)amino]pyridin-4-yl}oxy)phenyl]-N′-(4-fluorophenyl)cyclopropane-1,1-dicarboxamide]
13 | 5.4 | O=C(Nc1cc(Oc2cc(F)c(NC(=O)C3(C(=O)Nc4ccc(F)cc4)CC3)cc2F)ccn1)N1CC(CN2CCC2)C1 [Example 95, N-{4-[(2-{[3-(Azetidin-1-ylmethyl)azetidin-1-ylcarbonyl]amino}pyridin-4-yl)oxy]-2,5-difluorophenyl}-N′-(4-fluorophenyl)cyclopropane-1,1-dicarboxamide]
4.2 | 3.8 | O=C(Nc1cc(Oc2cc(F)c(NC(=O)C3(C(=O)Nc4ccc(F)cc4)CC3)cc2F)ccn1)N1CC(CO)C1 [Example 96, N-(2,5-Difluoro-4-{[2-({[3-(hydroxymethyl)azetidin-1-yl]carbonyl}amino)pyridin-4-yl]oxy}phenyl)-N′-(4-fluorophenyl)cyclopropane-1,1-dicarboxamide]
14 | 38 | O=C(Nc1cc(Oc2cc(F)c(NC(=O)C3(C(=O)Nc4ccc(F)cc4)CC3)cc2F)ncn1)N1CC(O)C1 [Example 97, N-{2,5-Difluoro-4-[(4-{[(3-hydroxyazetidin-1-yl)carbonyl]amino}pyrimidin-6-yl)oxy]phenyl}-N′-(4-fluorophenyl)cyclopropane-1,1-dicarboxamide]
17 | 23 | CN(C)CC1CN(C(=O)Nc2cc(Oc3cc(F)c(NC(=O)C4(C(=O)Nc5ccc(F)cc5)CC4)cc3F)ncn2)C1 [Example 98, N-[4-({4-[({3-[(Dimethylamino)methyl]azetidin-1-yl}carbonyl)amino]pyrimidin-6-yl}oxy)-2,5-difluorophenyl]-N′-(4-fluorophenyl)cyclopropane-1,1-dicarboxamide]
